In US20020183384A1, “Methods of treating nuclear factor-kappa B mediated diseases and disorders” (priority 2001, published 2002):

Test system: NF-κB mediated transcription
Test: NF-κB driven β-lactamase reporter assay in ECV-304 NF-κB.βlaZ cells (AURORA CCF2 fluorescence)
Format: cell-based, human
Conditions: 10 μM compound; ECV-304 NF-κB.βlaZ cells stimulated with 10 ng/mL TNF-α or 100 pg/mL IL-1β, 6 hours at 37° C.; inhibition of maximum blue/green ratio
Summary of the method: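 ECV-304 cells (clone 1E8) stably carrying a β-lactamase reporter driven by 5 HIV-1 NF-κB sites, plated in M-199 with 2% FBS, compound at 10 μM final. CCF2 read at 395 nm excitation, blue 460 nm/green 530 nm emission ratio; IC50 from dose-response curve.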

Compared with “[2-(2,4,6-Triisopropyl-phenyl)-acetyl]-sulfamic acid 4-(benzylamino-methyl)-2,6-diisopropyl-phenyl ester; compound with generic inorganic neutral component [Example 229]”, `CC(C)c1cc(C(C)C)c(OC(=O)NS(=O)(=O)Oc2c(C(C)C)cc(C(C)C)cc2C(C)C)c(C(C)C)c1` [Example 126, Carbamic acid, [[2,4,6-tris(1-methylethyl)phenoxy]sulfonyl]-,2,4,6-tris(1-methylethyl)phenyl ester] is lower in “Percent Inhibition at 10 μM” value: 75.79% for the first, 10.02% for the second.

For `CC(C)c1cccc(C(C)C)c1OS(=O)(=O)NC(=O)OC1C2CC3CC(C2)CC1C3` (centres unmarked) [Example 131, Carbamic acid, [[2,6-bis(1-methylethyl)phenoxy]sulfonyl]-, tricyclo[3.1.1.1^3,7]-dec-2-yl ester], the “Percent Inhibition at 10 μM” value was 33.39%.

For `CC(C)c1cc(C(C)C)c(CC(=O)NS(=O)(=O)Oc2c(C(C)C)cc(NC(=O)[C@@H](N)CCCCN)cc2C(C)C)c(C(C)C)c1` [Example 197, [2-(2,4,6-Triisopropyl-phenyl)-acetyl]-sulfamic acid 4-((S)-2,6-diamino-hexanoylamino)-2,6-diisopropyl-phenyl ester; compound with generic inorganic neutral component], the “Percent Inhibition at 10 μM” value was less than 10%.
`CC1(C)OCC(NC(=O)NS(=O)(=O)NCC23CC4CC(CC(C4)C2)C3)C(c2ccccc2)O1` (stereo not drawn) [Example 104, Urea, N-(2,2-dimethyl-4-phenyl-1,3-dioxan-5-yl)-N′-[[(tricyclo[3.3.1.1^3,7]dec-1-ylmethyl)amino]sulfonyl]-, (4S-#cis/)-] was tested, and the “Percent Inhibition at 10 μM” value was less than 10%.

Same assay, conditions: Homo sapiens, ECV-304, 6 h, 10 μM compound; ECV-304 NF-κB.βlaZ cells stimulated with 10 ng/mL TNF-α or 100 pg/mL IL-1β, 6 hours at 37° C.; inhibition of maximum blue/green ratio; read-out: Percent Inhibition at 10 μM

Compared with `CCCCCCCCCCCCCCN(C)S(=O)(=O)NC(=O)Nc1c(C(C)C)cccc1C(C)C` [Example 84, Urea, N-[2,6-bis(1-methylethyl)phenyl]-N′-[(methyltetradecylamino)-sulfonyl]-], `CCCCCCCCCCCCOS(=O)(=O)NC(=O)Sc1c(C(C)C)cccc1C(C)C` [Example 93, Carbamothioic acid, [(dodecyloxy)sulfonyl]-, S-[2,6-bis(1-methylethyl)-phenyl] ester] is lower in inhibition at 10 µM: 44.8% for the first, 14.5% for the second.

First: CC(C)c1cc(C(C)C)c(CC(=O)NS(=O)(=O)Oc2c(C(C)C)cc(NC(=O)C(C)(C)N)cc2C(C)C)c(C(C)C)c1 [Example 207, [(2,4,6-Triisopropyl-phenyl)-acetyl]-sulfamic acid 4-(2-amino-2-methyl-propionylamino)-2,6-diisopropyl-phenyl ester]
Second: CC(C)c1cc(C(C)C)c(CC(=O)NS(=O)(=O)Oc2c(C(C)C)cc(NC(=O)[C@@H](C)N)cc2C(C)C)c(C(C)C)c1 [Example 206, [2-(2,4,6-Triisopropyl-phenyl)-acetyl]-sulfamic acid 4-((R)-2-amino-propionylamino)-2,6-diisopropyl-phenyl ester; compound with trifluoro-acetic acid]
The inhibition at 10 µM of the first is higher: 60.3% for the first, 47.9% for the second.

Going from `CSCCC(NC(=O)OC(C)(C)C)C(=O)Nc1cc(C(C)C)c(OS(=O)(=O)NC(=O)Cc2c(C(C)C)cc(C(C)C)cc2C(C)C)c(C(C)C)c1` (centres unmarked) [Example 214, [1-(3,5-Diisopropyl-4-{[(2,4,6-triisopropyl-phenyl)-acetyl]sulfamoyloxy}-phenylcarbamoyl)-3-methylsulfanyl-propyl]-carbamic acid tert-butyl ester] to `CC(C)c1cc(C(C)C)c(CC(=O)NS(=O)(=O)Oc2c(C(C)C)cc(NC(=O)Nc3c(C(C)C)cccc3C(C)C)cc2C(C)C)c(C(C)C)c1` [Example 215, [(2,4,6-Triisopropyl-phenyl)-acetyl]-sulfamic acid 4-[3-(2,6-diisopropyl-phenyl)-ureido]-2,6-diisopropyl-phenyl ester], the inhibition at 10 µM rises from 71.7% to 74.7%.

Compared with `CC(C)c1cccc(C(C)C)c1OS(=O)(=O)NC(=O)C(Br)c1ccccc1` (centres unmarked) [Example 175, (Bromo-phenyl-acetyl)-sulfamic acid 2,6-diisopropyl-phenyl ester], `CC(C)c1cccc(C(C)C)c1OS(=O)(=O)NC(=O)C1(c2ccccc2)CCCC1` [Example 168, (1-Phenyl-cyclopentanecarbonyl)-sulfamic acid 2,6-diisopropyl-phenyl ester] is higher in inhibition at 10 µM: less than 10% for the first, 39.1% for the second.

Compared with `CC(C)c1cc(C(C)C)c(NC(=O)NS(=O)(=O)Oc2c(C(C)C)cccc2C(C)C)c(C(C)C)c1` [Example 177, Sulfamic acid, [[[2,4,6-tris(1-methylethyl)phenyl]amino]carbonyl]-, 2,6-bis(1-methylethyl)phenyl ester], `CC(C)c1cccc(C(C)C)c1OS(=O)(=O)NC(=O)Sc1c(C(C)C)cccc1C(C)C` [Example 139, Carbamothioic acid, [[2,6-bis(1-methylethyl)phenoxy]sulfonyl]-, S-[2,6-bis(1-methylethyl)phenyl] ester] is higher in inhibition at 10 µM: 63.6% for the first, 65.5% for the second.

Compared with `CC(C)c1cccc(C(C)C)c1OS(=O)(=O)NC(=O)C(c1ccc(Cl)cc1)c1ccc(Cl)cc1` [Example 172, [Bis-(4-chloro-phenyl)-acetyl]-sulfamic acid 2,6-diisopropyl-phenyl ester], `CC(C)c1cccc(C(C)C)c1OS(=O)(=O)NC(=O)C(c1ccccc1)(c1ccccc1)c1ccccc1` [Example 163, Triphenylacetyl-sulfamic acid 2,6-diisopropyl-phenyl ester] is lower in inhibition at 10 µM: 86.9% for the first, 62.4% for the second.

First: CC(C)c1cc(C(C)C)c(CC(=O)NS(=O)(=O)Oc2c(C(C)C)cc(NC(=S)Nc3cc(Cl)cc(Cl)c3)cc2C(C)C)c(C(C)C)c1 [Example 235, [(2,4,6-Triisopropyl-phenyl)-acetyl]-sulfamic acid 4-[3-(3,5-dichloro-phenyl)-thioureido]-2,6-diisopropyl-phenyl ester]
Second: CC(C)c1cc(C(C)C)c(CC(=O)NS(=O)(=O)Oc2c(C(C)C)cc(NS(=O)(=O)c3cccs3)cc2C(C)C)c(C(C)C)c1 [Example 225, [(2,4,6-Triisopropyl-phenyl)-acetyl]-sulfamic acid 2,6-diisopropyl-4-(thiophene-2-sulfonylamino)-phenyl ester]
The inhibition at 10 µM of the first is higher: 146% for the first, 26.4% for the second.

Compared with `CC(C)c1cccc(C(C)C)c1OS(=O)(=O)NC(=O)C1(c2ccc([N+](=O)[O-])cc2)CCCC1` [Example 213, [1-(4-Nitro-phenyl)-cyclopentanecarbonyl]-sulfamic acid 2,6-diisopropyl-phenyl ester], `CC(C)c1cccc(C(C)C)c1OS(=O)(=O)NC(=O)OC1[C@@H](C(C)C)CCC[C@H]1C(C)C` (stereo partly drawn) [Example 164, Carbamic acid, [[2,6-bis(1-methylethyl)phenoxy]sulfonyl]-, (2R,6S)-2,6-bis(1-methylethyl)cyclohexyl ester] is higher in inhibition at 10 µM: 19.7% for the first, 55.2% for the second.

Compared with `COc1cc(OC)c(OS(=O)(=O)NC(=O)Cc2c(C(C)C)cc(C(C)C)cc2C(C)C)c(OC)c1` [Example 189, [(2,4,6-Triisopropyl-phenyl)-acetyl]-sulfamic acid 2,4,6-trimethoxy-phenyl ester], `CC(C)CN(CC(C)C)S(=O)(=O)NC(=O)Nc1c(C(C)C)cccc1C(C)C` [Example 68, Urea, N-[2,6-bis(1-methylethyl)phenyl]-N′-[[bis(2-methylpropyl)amino]-sulfonyl]-] is higher in inhibition at 10 µM: 15.1% for the first, 34.3% for the second.

Same assay, conditions: Homo sapiens; 10 μM compound; ECV-304 NF-κB.βlaZ cells stimulated with 10 ng/mL TNF-α or 100 pg/mL IL-1β, 6 hours at 37° C.; inhibition of maximum blue/green ratio; read-out: Percent Inhibition at 10 μM

`CC(C)c1cccc(C(C)C)c1OC(=O)NS(=O)(=O)Oc1c(F)cccc1F` [Example 103, Carbamic acid, [(2,6-difluorophenoxy)sulfonyl]-, 2,6-bis(1-methylethyl)-phenyl ester] and `CC(C)c1cccc(C(C)C)c1OS(=O)(=O)NC(=O)Oc1ccc(F)cc1` [Example 150, Carbamic acid, [[2,6-bis(1-methylethyl)phenoxy]sulfonyl]-, 4-fluorophenyl ester] cannot be ordered by inhibition at 10 µM: less than 10% for the first, less than 10% for the second.

Compared with `CCCCN(CCCC)S(=O)(=O)NC(=O)Oc1c(C(C)C)cccc1C(C)C` [Example 27, Carbamic acid, [(dibutylamino)sulfonyl]-, 2,6-bis(1-methylethyl)phenyl ester], `CCCCCCCCN(C)S(=O)(=O)NC(=O)Oc1c(C(C)C)cccc1C(C)C` [Example 87, Carbamic acid, [(methyloctylamino)sulfonyl]-, 2,6-bis(1-methylethyl)-phenyl ester] is lower in inhibition at 10 µM: 26.1% for the first, less than 10% for the second.

Going from `CCCCCCN(CCCCCC)S(=O)(=O)NC(=O)Oc1c(C(C)(C)C)cc(C)cc1C(C)(C)C` [Example 33, Carbamic acid, [(dihexylamino)sulfonyl]-, 2,6-bis(1,1-dimethylethyl)-4-methylphenyl ester] to `CCCCCCCCN(CCCCCCCC)S(=O)(=O)NC(=O)Oc1c(C(C)(C)C)cc(C)cc1C(C)(C)C` [Example 46, Carbamic acid, [(dioctylamino)sulfonyl]-, 2,6-bis(1,1-dimethylethyl)-4-methylphenyl ester], the inhibition at 10 µM falls from 58.6% to 34.8%.

Compared with `COC(=O)NS(=O)(=O)Oc1c(C(C)C)cccc1C(C)C` [Example 56, Carbamic acid, [[2,6-bis(1-methylethyl)phenoxy]sulfonyl]-, methyl ester], `Cc1cc(C(C)(C)C)c(OC(=O)NS(=O)(=O)Nc2c(C(C)C)cccc2C(C)C)c(C(C)(C)C)c1` [Example 6, Carbamic acid, [[[2,6-bis(1-methylethyl)phenyl]amino]sulfonyl]-, 2,6-bis(1,1-dimethylethyl)-4-methylphenyl ester] is higher in inhibition at 10 µM: less than 10% for the first, 64.9% for the second.

`CCCCN(CCCC)S(=O)(=O)NC(=O)Oc1c(C(C)(C)C)cc(C)cc1C(C)(C)C` [Example 30, Carbamic acid, [(dibutylamino)sulfonyl]-, 2,6-bis(1,1-dimethylethyl)-4-methylphenyl ester] was tested, and the inhibition at 10 µM was 52%.
